Test results from ChEMBL document CHEMBL1275437, “Prevalence of serotype 19A Streptococcus pneumoniae among isolates from U.S. children in 2005-2006 and activity of faropenem” (2008).
In brackets after ≈: the same amount, converted by molar mass.

Experiments:
Type in all cases: functional
[1] = system: Streptococcus pneumoniae; assay: Antibacterial activity against Streptococcus pneumoniae serotype 3 assessed as percent susceptible isolates by broth microdilution method
[2] = system: Streptococcus pneumoniae; assay: Antibacterial activity against Streptococcus pneumoniae serotype 19F assessed as percent resistant isolates by broth microdilution method
[3] = system: Streptococcus pneumoniae; assay: Antibacterial activity against Streptococcus pneumoniae serotype 19A assessed as percent susceptible isolates by broth microdilution method
[4] = system: Streptococcus pneumoniae; assay: Antibacterial activity against Streptococcus pneumoniae serotype 23A assessed as percent resistant isolates by broth microdilution method
[5] = system: Streptococcus pneumoniae; assay: Antibacterial activity against Streptococcus pneumoniae serotype 23A by broth microdilution method
[6] = system: Streptococcus pneumoniae; assay: Antibacterial activity against Streptococcus pneumoniae serotype 6A/C assessed as percent resistant isolates by broth microdilution method
[7] = system: Streptococcus pneumoniae; assay: Antibacterial activity against Streptococcus pneumoniae serotype 23A assessed as percent susceptible isolates by broth microdilution method
[8] = system: Streptococcus pneumoniae; assay: Antibacterial activity against Streptococcus pneumoniae serotype 6A/C by broth microdilution method
[9] = system: Streptococcus pneumoniae; assay: Antibacterial activity against Streptococcus pneumoniae serotype 3 assessed as percent resistant isolates by broth microdilution method
[10] = system: Streptococcus pneumoniae; assay: Antibacterial activity against Streptococcus pneumoniae serotype 33 assessed as percent resistant isolates by broth microdilution method
[11] = system: Streptococcus pneumoniae; assay: Antibacterial activity against Streptococcus pneumoniae serotype 19A assessed as percent resistant isolates by broth microdilution method
[12] = system: Streptococcus pneumoniae; assay: Antibacterial activity against Streptococcus pneumoniae serotype 6A/C assessed as percent susceptible isolates by broth microdilution method
[13] = system: Streptococcus pneumoniae; assay: Antibacterial activity against Streptococcus pneumoniae serotype 22 assessed as percent resistant isolates by broth microdilution method
[14] = system: Streptococcus pneumoniae; assay: Antibacterial activity against Streptococcus pneumoniae serotype 15A assessed as percent resistant isolates by broth microdilution method
[15] = system: Streptococcus pneumoniae; assay: Antibacterial activity against Streptococcus pneumoniae serotype 19A by broth microdilution method
[16] = system: Streptococcus pneumoniae; assay: Antibacterial activity against Streptococcus pneumoniae serotype 35B assessed as percent resistant isolates by broth microdilution method
[17] = system: Streptococcus pneumoniae; assay: Antibacterial activity against Streptococcus pneumoniae serotype 33 assessed as percent susceptible isolates by broth microdilution method
[18] = system: Streptococcus pneumoniae; assay: Antibacterial activity against Streptococcus pneumoniae serotype 15A by broth microdilution method
[19] = system: Streptococcus pneumoniae; assay: Antibacterial activity against Streptococcus pneumoniae serotype 35B by broth microdilution method
[20] = system: Streptococcus pneumoniae; assay: Antibacterial activity against Streptococcus pneumoniae serotype 19F assessed as percent susceptible isolates by broth microdilution method
[21] = system: Streptococcus pneumoniae; assay: Antibacterial activity against Streptococcus pneumoniae serotype 33 by broth microdilution method
[22] = system: Streptococcus pneumoniae; assay: Antibacterial activity against Streptococcus pneumoniae serotype 15A assessed as percent susceptible isolates by broth microdilution method
[23] = system: Streptococcus pneumoniae; assay: Antibacterial activity against Streptococcus pneumoniae serotype 3 by broth microdilution method
[24] = system: Streptococcus pneumoniae; assay: Antibacterial activity against Streptococcus pneumoniae serotype 35B assessed as percent susceptible isolates by broth microdilution method
[25] = system: Streptococcus pneumoniae; assay: Antibacterial activity against Streptococcus pneumoniae serotype 22 by broth microdilution method
[26] = system: Streptococcus pneumoniae; assay: Antibacterial activity against Streptococcus pneumoniae serotype 22 assessed as percent susceptible isolates by broth microdilution method
[27] = system: Streptococcus pneumoniae; assay: Antibacterial activity against Streptococcus pneumoniae serotype 19F by broth microdilution method
[28] = Streptococcus pneumoniae, serotype 19F
[29] = Streptococcus pneumoniae, serotype 6A/C
[30] = Streptococcus pneumoniae, serotype 19A
[31] = Streptococcus pneumoniae, serotype 15A
[32] = Streptococcus pneumoniae, serotype 35B

| Structure (SMILES) | % susceptible isolates [1] | percent susceptible isolates [3] | % resistant isolates [4] | MIC90 [5] | percent susceptible isolates [7] | MIC90 [8] | % resistant isolates [10] | percent susceptible isolates [12] | % resistant isolates [13] | MIC90 [15] | % susceptible isolates [17] | MIC90 [18] | MIC90 [19] | percent susceptible isolates [20] | percent susceptible isolates [22] | MIC90 [23] | MIC90 [25] | % susceptible isolates [26] | MIC90 [27] | % resistant isolates [9] | further results |
| --- | --- | --- | --- | --- | --- | --- | --- | --- | --- | --- | --- | --- | --- | --- | --- | --- | --- | --- | --- | --- | --- |
| CC[C@H]1OC(=O)[C@H](C)[C@@H](O[C@H]2C[C@@](C)(OC)[C@@H](O)[C@H](C)O2)[C@H](C)[C@@H](O[C@@H]2O[C@H](C)C[C@H](N(C)C)[C@H]2O)[C@](C)(O)C[C@@H](C)CN(C)[C@H](C)[C@@H](O)[C@]1(C)O [AZITHROMYCIN] | 93% | 36% | 0% | > 16 µg/mL | 79% | 8 µg/mL (≈ 10.7 µM) | 0% | 31% | 0% | > 16 µg/mL | 42% | > 16 µg/mL | 16 µg/mL (≈ 21.4 µM) | 29% | 7% | 0.5 µg/mL (≈ 0.668 µM) | ≤ 0.12 µg/mL | 100% | > 16 µg/mL | – | % resistant isolates [2, 28]: 71%; % resistant isolates [6, 29]: 69%; % resistant isolates ([9]; Streptococcus pneumoniae, serotype 3): 4%; % resistant isolates [11, 30]: 64%; % resistant isolates [14, 31]: 93%; % resistant isolates [16, 32]: 27%; MIC90 [21]: 16 µg/mL (≈ 21.4 µM); % susceptible isolates [24, 32]: 73% |
| C=CC1=C(C(=O)O)N2C(=O)[C@@H](NC(=O)/C(=N\O)c3csc(N)n3)[C@H]2SC1 [CEFDINIR] | 100% | 46% | 0% | 0.5 µg/mL (≈ 1.26 µM) | 93% | 2 µg/mL (≈ 5.06 µM) | 0% | 59% | 0% | > 8 µg/mL | 100% | 1 µg/mL (≈ 2.53 µM) | 4 µg/mL (≈ 10.1 µM) | 33% | 72% | 0.12 µg/mL (≈ 0.303 µM) | 0.12 µg/mL (≈ 0.303 µM) | 100% | > 8 µg/mL | 0% | % resistant isolates [2, 28]: 67%; % resistant isolates [6, 29]: 15%; % resistant isolates [11, 30]: 53%; % resistant isolates [14, 31]: 7%; % resistant isolates [16, 32]: 100%; MIC90 [21]: 0.12 µg/mL (≈ 0.303 µM); % susceptible isolates [24]: 0% |
| CO/N=C(\C(=O)N[C@@H]1C(=O)N2C(C(=O)OC(C)OC(C)=O)=C(COC(N)=O)CS[C@H]12)c1ccco1 (stereo not given in full) [CEFUROXIME AXETIL] | 100% | 46% | 0% | 1 µg/mL (≈ 1.96 µM) | 93% | 4 µg/mL (≈ 7.84 µM) | 0% | 64% | 0% | 16 µg/mL (≈ 31.3 µM) | 100% | 4 µg/mL (≈ 7.84 µM) | 4 µg/mL (≈ 7.84 µM) | 33% | 72% | ≤ 0.5 µg/mL | ≤ 0.5 µg/mL | 100% | 32 µg/mL (≈ 62.7 µM) | 0% | % resistant isolates [2, 28]: 67%; % resistant isolates [6, 29]: 15%; % resistant isolates [11, 30]: 52%; % resistant isolates [14, 31]: 21%; % resistant isolates [16, 32]: 100%; MIC90 [21]: ≤ 0.5 µg/mL; % susceptible isolates [24]: 0% |
| C[C@H]1COc2c(N3CCN(C)CC3)c(F)cc3c(=O)c(C(=O)O)cn1c23.C[C@H]1COc2c(N3CCN(C)CC3)c(F)cc3c(=O)c(C(=O)O)cn1c23.O [LEVOFLOXACIN] | 97% | 100% | 0% | 1 µg/mL | 100% | 1 µg/mL | 0% | 100% | 0% | 1 µg/mL | 1% | 1 µg/mL | 1 µg/mL | 100% | 100% | 2 µg/mL | 1 µg/mL | 100% | 1 µg/mL | 0% | % resistant isolates [2]: 0%; % resistant isolates [6]: 0%; % resistant isolates [11]: 0%; % resistant isolates [14]: 0%; % resistant isolates [16]: 0%; % susceptible isolates [24, 32]: 100% |
| CC1(C)S[C@@H]2[C@H](NC(=O)Cc3ccccc3)C(=O)N2[C@H]1C(=O)O [PENICILLIN G] | 100% | 13% | 0% | 0.5 µg/mL (≈ 1.5 µM) | 57% | 1 µg/mL (≈ 2.99 µM) | 0% | 23% | 0% | 4 µg/mL (≈ 12 µM) | 92% | 0.5 µg/mL (≈ 1.5 µM) | 2 µg/mL (≈ 5.98 µM) | 33% | 7% | ≤ 0.03 µg/mL | ≤ 0.03 µg/mL | 100% | > 4 µg/mL | 0% | % resistant isolates [2, 28]: 67%; % resistant isolates [6, 29]: 8%; % resistant isolates [11, 30]: 50%; % resistant isolates [14]: 0%; % resistant isolates [16, 32]: 100%; MIC90 [21]: ≤ 0.03 µg/mL; % susceptible isolates [24]: 0% |
| CC[C@H]1OC(=O)[C@H](C)C(=O)[C@H](C)[C@@H](O[C@@H]2O[C@H](C)C[C@H](N(C)C)[C@H]2O)[C@](C)(OC)C[C@@H](C)C(=O)[C@H](C)[C@H]2N(CCCCn3cnc(-c4cccnc4)c3)C(=O)O[C@]12C [TELITHROMYCIN] | 100% | 99% | 0% | ≤ 0.12 µg/mL | 100% | 0.25 µg/mL (≈ 0.308 µM) | 0% | 100% | 0% | 1 µg/mL (≈ 1.23 µM) | 0.25% | ≤ 0.12 µg/mL | 0.5 µg/mL (≈ 0.616 µM) | 100% | 100% | ≤ 0.12 µg/mL | ≤ 0.12 µg/mL | 100% | 1 µg/mL (≈ 1.23 µM) | 0% | % resistant isolates [2]: 0%; % resistant isolates [6]: 0%; % resistant isolates [11]: 0%; % resistant isolates [14]: 0%; % resistant isolates [16]: 0%; % susceptible isolates [24, 32]: 100% |
